EC50 and Activity data for three molecules are collected here from ChEMBL document CHEMBL3045321, “Sensitivity to iprodione, difenoconazole and fludioxonil of Rhizoctonia cerealis isolates collected from wheat in China” (Crop Prot, 2011).

Common to all, as to format: functional, organism-based
Test [1] relates to Ceratobasidium cereale. The test is described as follows: Antifungal activity against Ceratobasidium cereale two generation induced iprodione-resistant wheat field isolate HL64R assessed as mycelial growth inhibition in potato dextrose agar media at 25 degC measured after 3 days. The following applies: 72 h.
In test [2] the test system is Ceratobasidium cereale. The test is described as follows: Antifungal activity against Ceratobasidium cereale two generation induced iprodione-resistant wheat field isolate HQ31R assessed as mycelial growth inhibition in potato dextrose agar media at 25 degC measured after 3 days. The settings on record: 72 h.
Test [3] relates to Ceratobasidium cereale. The test is described as follows: Antifungal activity against Ceratobasidium cereale two generation induced iprodione-resistant wheat field isolate HN49R assessed as mycelial growth inhibition in potato dextrose agar media at 25 degC measured after 3 days. The settings on record: 72 h.
The subject of test [4] is Ceratobasidium cereale. Kind of test: Antifungal activity against Ceratobasidium cereale two generation induced iprodione-resistant wheat field isolate HD10R assessed as mycelial growth inhibition in potato dextrose agar media at 25 degC measured after 3 days. The settings on record: 72 h.
Test [5] has as its system Ceratobasidium cereale. Kind of test: Antifungal activity against Ceratobasidium cereale two generation induced iprodione-resistant wheat field isolate HQ12R assessed as mycelial growth inhibition in potato dextrose agar media at 25 degC measured after 3 days. The settings on record: 72 h.
Test [6] relates to Ceratobasidium cereale. Kind of test: Antifungal activity against Ceratobasidium cereale two generation induced iprodione-resistant wheat field isolate HN100R assessed as mycelial growth inhibition in potato dextrose agar media at 25 degC measured after 3 days. The settings on record: 72 h.
Test [7] relates to Ceratobasidium cereale. Kind of test: Antifungal activity against Ceratobasidium cereale two generation induced iprodione-resistant wheat field isolate HQ3R assessed as mycelial growth inhibition in potato dextrose agar media at 25 degC measured after 3 days. The following applies: 72 h.
In test [8] the test system is Ceratobasidium cereale. The test is described as follows: Antifungal activity against Ceratobasidium cereale iprodione-sensitive wheat field isolate HL64 assessed as mycelial growth inhibition in potato dextrose agar media at 25 degC measured after 3 days. The settings on record: isolate HL64, 72 h.
Test [9] relates to Ceratobasidium cereale. Kind of test: Antifungal activity against Ceratobasidium cereale iprodione-sensitive wheat field isolate HQ31 assessed as mycelial growth inhibition in potato dextrose agar media at 25 degC measured after 3 days. The settings on record: isolate HQ31, 72 h.
For test [10], the system named is Ceratobasidium cereale. Kind of test: Antifungal activity against Ceratobasidium cereale iprodione-sensitive wheat field isolate HN49 assessed as mycelial growth inhibition in potato dextrose agar media at 25 degC measured after 3 days. The following applies: isolate HN49, 72 h.
The subject of test [11] is Ceratobasidium cereale. Kind of test: Antifungal activity against Ceratobasidium cereale iprodione-sensitive wheat field isolate HD10 assessed as mycelial growth inhibition in potato dextrose agar media at 25 degC measured after 3 days. The following applies: isolate HD10, 72 h.
Test [12] deals with Ceratobasidium cereale. The test is described as follows: Antifungal activity against Ceratobasidium cereale iprodione-sensitive wheat field isolate HQ12 assessed as mycelial growth inhibition in potato dextrose agar media at 25 degC measured after 3 days. The settings on record: isolate HQ12, 72 h.
The subject of test [13] is Ceratobasidium cereale. Kind of test: Antifungal activity against Ceratobasidium cereale iprodione-sensitive wheat field isolate HN100 assessed as mycelial growth inhibition in potato dextrose agar media at 25 degC measured after 3 days. The settings on record: isolate HN100, 72 h.
For test [14], the system named is Ceratobasidium cereale. The test is described as follows: Antifungal activity against Ceratobasidium cereale iprodione-sensitive wheat field isolate HQ3 assessed as mycelial growth inhibition in potato dextrose agar media at 25 degC measured after 3 days. The following applies: isolate HQ3, 72 h.
Test [15] deals with Ceratobasidium cereale. The test is described as follows: Antifungal activity against Ceratobasidium cereale wheat field isolate assessed as mycelial growth inhibition at 10 ug/mL in potato dextrose agar media 25 degC measured after 5 days.
In test [16] the test system is Ceratobasidium cereale. Kind of test: Antifungal activity against Ceratobasidium cereale wheat field isolate assessed as mycelial growth inhibition at 25 degC measured after 3 days. The settings on record: 72 h.

Converted amounts (≈) assume the structure as drawn. The source made the active and inactive calls. The calls are words filed in the database; no cut-off is given here. Where only a bound is given, the exact number is not on record here.

The term EC50 denotes the concentration needed to bring the measured effect to its halfway point.

As for `CC(C)NC(=O)N1CC(=O)N(c2cc(Cl)cc(Cl)c2)C1=O` [IPRODIONE], the EC50 in the test on Ceratobasidium cereale [1], with Ceratobasidium cereale [2], with Ceratobasidium cereale [3], in the test on Ceratobasidium cereale [4], in the test on Ceratobasidium cereale [5] and in the test with Ceratobasidium cereale [6] was above 100 µg/mL each time. In addition, the EC50 with Ceratobasidium cereale [7] was above 100 µg/mL; in the test with Ceratobasidium cereale [8], 0.372 µg/mL (≈ 1.13 µM); in the test on Ceratobasidium cereale [9], 0.35 µg/mL (≈ 1.06 µM); in the test on Ceratobasidium cereale [10] it was 0.481 µg/mL (≈ 1.46 µM); with Ceratobasidium cereale [11], 0.46 µg/mL (≈ 1.39 µM); in the test on Ceratobasidium cereale [12] it was 0.725 µg/mL (≈ 2.2 µM). The EC50 with Ceratobasidium cereale [13] was 0.249 µg/mL (≈ 0.754 µM); in the test on Ceratobasidium cereale [14] it was 0.357 µg/mL (≈ 1.08 µM); in the test with Ceratobasidium cereale [16] it was 0.419 µg/mL (≈ 1.27 µM). The result in the test on Ceratobasidium cereale [15] was Active.
For the molecule `CC1COC(Cn2cncn2)(c2ccc(Oc3ccc(Cl)cc3)cc2Cl)O1` (stereo unspecified) [DIFENOCONAZOLE], the EC50 with Ceratobasidium cereale [1] came to 0.057 µg/mL (≈ 0.14 µM); in the test with Ceratobasidium cereale [2], 0.06 µg/mL (≈ 0.148 µM); in the test with Ceratobasidium cereale [3], 0.074 µg/mL (≈ 0.182 µM); in the test on Ceratobasidium cereale [4] it was 0.07 µg/mL (≈ 0.172 µM); in the test on Ceratobasidium cereale [5], 0.092 µg/mL (≈ 0.226 µM); with Ceratobasidium cereale [6], 0.01 µg/mL (≈ 0.0246 µM). Besides, the EC50 in the test with Ceratobasidium cereale [7] came out at 0.034 µg/mL (≈ 0.0837 µM); in the test with Ceratobasidium cereale [8], 0.032 µg/mL (≈ 0.0788 µM); in the test with Ceratobasidium cereale [9] it was 0.037 µg/mL (≈ 0.0911 µM); in the test with Ceratobasidium cereale [10] it was 0.07 µg/mL (≈ 0.172 µM); in the test with Ceratobasidium cereale [11], 0.066 µg/mL (≈ 0.162 µM); in the test on Ceratobasidium cereale [12] it was 0.082 µg/mL (≈ 0.202 µM). The half-maximal effective concentration (EC50) was 0.095 µg/mL (≈ 0.234 µM) in the test with Ceratobasidium cereale [13], 0.04 µg/mL (≈ 0.0985 µM) in the test on Ceratobasidium cereale [14] and 0.062 µg/mL (≈ 0.153 µM) in the test on Ceratobasidium cereale [16].
As to `N#Cc1c[nH]cc1-c1cccc2c1OC(F)(F)O2` [FLUDIOXONIL], the EC50 in the test with Ceratobasidium cereale [1], in the test with Ceratobasidium cereale [2], with Ceratobasidium cereale [3], with Ceratobasidium cereale [4], in the test with Ceratobasidium cereale [5] and in the test with Ceratobasidium cereale [6] was above 100 µg/mL throughout. Also, the EC50 was above 100 µg/mL in the test with Ceratobasidium cereale [7]; 0.022 µg/mL (≈ 0.0886 µM) with Ceratobasidium cereale [8]; 0.026 µg/mL (≈ 0.105 µM) in the test on Ceratobasidium cereale [9]; 0.026 µg/mL (≈ 0.105 µM) in the test with Ceratobasidium cereale [10]; 0.05 µg/mL (≈ 0.201 µM) in the test with Ceratobasidium cereale [11]; 0.032 µg/mL (≈ 0.129 µM) in the test with Ceratobasidium cereale [12]. Also, the results for the EC50 in the test with Ceratobasidium cereale [13], in the test with Ceratobasidium cereale [14] and in the test on Ceratobasidium cereale [16] were 0.024 µg/mL (≈ 0.0967 µM), 0.015 µg/mL (≈ 0.0604 µM) and 0.033 µg/mL (≈ 0.133 µM), respectively.
